Laboratory results published in patent US20250122171A1, “Substituted Amine Compounds, Compositions and Methods of Use” (Deep Apple Therapeutics, Inc., priority 2023, published 2025).

Assays:
Assay type in all cases: cell-based
human MRGPRX2 = molecular target: T1, human MRGPRX2 (Homo sapiens, UniProt Q96LB1); assay: MRGPRX2 Activity Assay (IP-1 HTRF, antagonist mode); conditions: FlpIn TRex-MRGPRX2-HEK293 cells; versus 1 μM Cortistatin-14 agonist; 30 minutes preincubation
T1 construct: expressed in transfected cells; host or cells: FlpIn TRex HEK293 (TRex-MRGPRX2-HEK), doxycycline-induced
T1 sequence (Q96LB1 1-330): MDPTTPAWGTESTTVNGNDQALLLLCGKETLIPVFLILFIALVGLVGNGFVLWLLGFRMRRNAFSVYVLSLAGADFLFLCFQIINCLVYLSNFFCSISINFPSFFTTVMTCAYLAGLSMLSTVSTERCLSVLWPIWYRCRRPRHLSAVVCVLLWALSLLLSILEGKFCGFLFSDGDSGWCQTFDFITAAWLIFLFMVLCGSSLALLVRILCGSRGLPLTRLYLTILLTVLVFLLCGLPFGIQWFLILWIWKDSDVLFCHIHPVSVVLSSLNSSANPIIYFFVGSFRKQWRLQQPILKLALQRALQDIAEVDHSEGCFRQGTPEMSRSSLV
Outline: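 Doxycycline-induced (100 ng/mL, 18-24 h) TRex HEK293 cells stably expressing human MRGPRX2, in HBSS/20 mM HEPES/0.1% BSA/10 mM LiCl. Compounds (top final 30 uM, 1% DMSO) preincubated 30 min, then agonist stimulation 1 h at 37° C without wash. IP-1 accumulation read by HTRF; IC50 from 4-parameter fit.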

LAD-2 cells [1] = assay: LAD2 Degranulation Assay (Protocol 1), β-hexosaminidase release; conditions: Homo sapiens, 1 μM Cortistatin-14, 30 minute preincubation, top concentration 3 μM
Protocol: (§1) LAD-2 cells were maintained at 37° C. with 5% CO2 and grown in complete StemPro-34 media supplemented with 1% L-Glutamate, 1% penicillin/streptomycin, and 250 ng/mL human SCF.
On the day of experiment, cells were collected by centrifugation and seeded in 384-well assay plates, at 4,000 cells per well in 10 μl freshly made assay buffer (10 mM HEPES, 130 mM NaCl, 5 mM KCl, 1.8 mM CaCl2), 1.0 mM MgCl2, 5.6 mM glucose, 0.1% BSA, pH=7.40). For dose-response assays, compounds solubilized in 100% DMSO at 30 mM were serially diluted (1:3) first in 100% DMSO, and 2 intermediate dilutions with assay buffer were used to establish a final top concentration of 3 μM (in assay plate). Final DMSO concentration was kept constant at 0.1% across plates for all assays. Cortistatin-14 at 30 mM stock concentration was solubilized in HBSS+0.1% BSA, stored at −20° C. in 5 μl aliquots and discarded after one freeze-thaw cycle. Final concentration of agonist used in both dose-response and single point assays was 1 μM, prepared in assay buffer.
(§2) Antagonist equilibrium was established with 30 minute preincubation, followed by no wash, direct addition, and stimulation of agonist for 30 minutes at 37° C. For detection of β-hexosaminidase activity, assay plates were centrifuged and 5 μl of cell-free supernatant from each assay well was transferred to a black-walled black-bottomed 384-well plate. Substrate solution (1 mM 4-Methylumbelliferyl N-acetyl-β-D-glucosaminide in citrate buffer, pH=4.5, 15 μl) was added to each well and plates were incubated for 1 hour at 37° C. The plate was read on an EnVision XCite plate reader for umbelliferone fluorescence intensity (λex=355 nm, λem=460 nm). Background-subtracted data was analyzed using either GraphPad Prism or a custom Python script to calculate IC50 using either Log[Antagonist] vs. response (4 parameter) nonlinear regression (dose-response assays).

hERG channel = molecular target: T2, hERG channel (Homo sapiens, UniProt Q12809); assay: hERG Safety Evaluation by Manual Patch-Clamp System; conditions: hERG-T-Rex 293 cells, whole cell patch-clamp at 35° C.
T2 construct: host or cells: hERG-T-Rex 293 (HEK 293), doxycycline-induced
T2 sequence (Q12809 whole entry): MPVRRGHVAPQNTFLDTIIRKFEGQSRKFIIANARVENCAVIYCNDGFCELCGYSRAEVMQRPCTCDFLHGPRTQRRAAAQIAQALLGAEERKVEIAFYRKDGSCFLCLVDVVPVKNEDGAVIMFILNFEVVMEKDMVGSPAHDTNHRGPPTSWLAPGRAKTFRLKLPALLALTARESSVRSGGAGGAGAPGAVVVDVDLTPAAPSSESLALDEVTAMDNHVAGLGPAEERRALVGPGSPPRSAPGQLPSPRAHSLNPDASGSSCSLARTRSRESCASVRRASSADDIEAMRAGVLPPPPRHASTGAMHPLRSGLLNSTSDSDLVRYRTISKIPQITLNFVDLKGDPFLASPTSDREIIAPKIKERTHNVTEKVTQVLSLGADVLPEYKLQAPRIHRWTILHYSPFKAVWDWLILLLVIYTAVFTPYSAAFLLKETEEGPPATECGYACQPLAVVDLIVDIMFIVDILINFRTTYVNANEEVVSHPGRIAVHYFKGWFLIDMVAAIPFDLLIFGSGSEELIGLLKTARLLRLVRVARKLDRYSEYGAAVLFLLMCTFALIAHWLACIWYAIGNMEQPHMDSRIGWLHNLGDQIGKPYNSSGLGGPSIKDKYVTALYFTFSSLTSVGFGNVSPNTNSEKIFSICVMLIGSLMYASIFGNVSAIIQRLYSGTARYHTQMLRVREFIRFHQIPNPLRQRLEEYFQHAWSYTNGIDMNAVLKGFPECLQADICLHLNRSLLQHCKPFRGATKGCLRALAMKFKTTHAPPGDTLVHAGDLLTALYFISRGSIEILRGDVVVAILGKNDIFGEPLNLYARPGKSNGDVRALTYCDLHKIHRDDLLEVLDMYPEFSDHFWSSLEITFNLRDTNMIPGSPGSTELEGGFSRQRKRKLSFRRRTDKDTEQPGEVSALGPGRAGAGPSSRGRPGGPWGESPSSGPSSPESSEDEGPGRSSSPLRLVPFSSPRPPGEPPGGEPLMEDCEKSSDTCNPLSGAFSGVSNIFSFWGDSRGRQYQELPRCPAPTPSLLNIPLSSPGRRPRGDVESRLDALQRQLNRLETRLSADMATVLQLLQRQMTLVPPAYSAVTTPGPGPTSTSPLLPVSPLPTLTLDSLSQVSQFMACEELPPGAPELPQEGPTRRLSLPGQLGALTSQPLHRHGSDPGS
Protocol: A stable BIEK 293 cell line with inducible hERG channel expression (hERG-T-Rex 293, Invitrogen cat #K1236) was cultured in medium containing 85% DMVEM, 10% dialyzed FBS, 0.1 mM NEAA, 25 mM HEPES, 100 U/mL Penicillin-Streptomycin, 5 μg/mL Blasticidin and 400 μg/mL Geneticin. Before the assay, cells were induced with doxycycline at 1 μg/mL for 48 hours. On the experiment day, the induced cells were resuspended and plated onto coverslips at 5×10^5 cells/per 3.5 cm cell culture dish prior to use and cultured in medium without Blasticidin and Geneticin.
Electrophysiology recordings were performed in extracellular solution (ECS) containing (in mM): 132 NaCl, 4 KCl, 3 CaCl2), 0.5 MgCl2, 11.1 D-(+) glucose, and 10 HEPES (pH adjusted to 7.35 with NaOH, osmolarity 285-295 mOsm). Recording pipets contained (in mM) 10 NaCl, 10 KCl, 110 KF, 10 EGTA, and 10 HEPES (pH adjusted to 7.2 with KOH, osmolarity 285-295 mOsm).
Test and positive control (dofetilide) compounds were solubilized in 100% DMSO at 10 mM or 75 mM, respectively. Intermediate dilutions of compounds were prepared by serial dilution in 100% DMSO, after which working solutions were prepared in ECS (final DMSO concentration=0.1-1% v/v for test compounds, and 0.1% for dofetilide). […]
Whole cell recordings of voltage-clamped cells were performed at 35° C., with all working solutions heated to 34° C. in a water bath before administration. Current recordings were collected at 20 kHz with a 10 kHz filter and were compensated for capacitance. Cells were clamped at −60 mV, and leak current was tested at −80 mV for 500 ms. The hERG current was elicited by depolarizing at +30 mV for 4.8 seconds and then the voltage was taken back to −50 mV for 5.2 seconds to remove the inactivation and observe the deactivating tail current. Recordings were continued for 120 seconds to assess current stability. Only stable cells with recording parameters above threshold were used in compound administration experiments. Vehicle control was applied to cells to establish baseline. […] For dose response testing, test compound was applied to the cells cumulatively from low to high concentrations. Dofetilide at concentration of 450 nM was also applied to each cell post-hERG current measurement at the highest concentration of test compound as the internal low control for normalization of percentage inhibition. Dofetilide (5 doses) response was performed as positive hERG inhibition control for each batch of cells.
The following criteria were used to determine data acceptability: 1) Initial seal resistance>1 GΩ; 2) Leak currents<50% of the control peak tail currents at any time; 3) Normal test pulse current waveform (e.g., hERG peak tail) current amplitude greater than prepulse current amplitude and the peak tail amplitude>250 pA; 4) Membrane resistance Rm>500 MΩ; 5) Access resistance (Ra)<15 MΩ; 6) Apparent run-down of peak current<2.5% per min. Percent current inhibition was calculated as (1−(Peak tail currentcompound−Peak tail currentpositive control)/(Peak tail currentBlank vehicle−Peak tail currentpositive control))×100. PatchMaster software was used to extract the peak current from the original data. The dose response curve of test compounds was plotted with % inhibition against the concentration of test compounds using Graphpad Prism 8.0, and the data fit to a sigmoid dose-response curve with a variable slope.

LAD-2 cells [2] = assay: LAD2 Degranulation Assay (Protocol 2), β-hexosaminidase release; conditions: Homo sapiens; for IC50: 0.5 μM Cortistatin-14, 2 h preincubation, cells without SCF 18-24 hours, top concentration 3 μM; for activity at 0.25 µM: single point 250 nM, 0.5 μM Cortistatin-14, % control β-hexosaminidase activity
Protocol: as §1
18-24 hours prior to experiment, LAD-2 cells were collected and transferred to growth media without SCF. On the day of experiment, cells were collected by centrifugation and seeded in 384-well assay plates, at 4,000 cells per well in 17 μl freshly made assay buffer (10 mM HEPES, 137 mM NaCl, 2.7 mM KCl, 1.8 mM CaCl2), 1.0 mM MgCl2, 5.6 mM glucose, 0.4 mM NaH2PO4, 0.04% BSA, pH=7.40). For dose-response assays, compounds solubilized in 100% DMSO at 30 mM were serially diluted (1:3) first in 100% DMSO, and 2 intermediate dilutions with assay buffer were used to establish a final top concentration of 3 μM (in assay plate). For single point assays, dilution of DMSO stocks to 250 nM (in assay plate) was performed in the same manner as described for dose-response assays. Final DMSO concentration was kept constant at 0.1% across plates for all assays. Cortistatin-14 at 30 mM stock concentration was solubilized in HBSS+0.1% BSA, stored at −20° C. in 5 μl aliquots and discarded after one freeze-thaw cycle. Final concentration of agonist used in both dose-response and single point assays was 0.5 μM, prepared in assay buffer.
as §2, with “with 2 h” for “with 30 minute”, “[…])” for “15 μl)”, “(dose-response assays) or % control β-hexosaminidase activity (single point” for “(dose-response”

SMILES | IC50 (human MRGPRX2) [nM] | IC50 (LAD-2 cells [1]) [nM] | IC50 (LAD-2 cells [2]) [nM] | hERG Inhibition (%) @ 1 μM (hERG channel) [%] | hERG Inhibition (%) @ 20 μM (hERG channel) [%] | activity at 0.25 µM (LAD-2 cells [2]) [%]
C[C@@H](C(=O)Nc1nc2cc3c(cc2s1)OCO3)N1CCC(F)(F)[C@@H](c2cc[n+]([O-])cc2)C1 (single isomer, unassigned) [Compound 11] | 3.7 | 12 | – | 11 | 62 | –
C[C@@H](C(=O)Nc1cn2c(n1)CC[C@H]2c1cc(F)cc(F)c1)N1CCC(F)(F)[C@@H](c2ccc(=O)[nH]c2)C1 (single isomer, unassigned) [Compound 494] | 20 | – | 6.9 | 9 | 54 | 13

More lines, main results first:

IC50 (human MRGPRX2) [nM] | IC50 (LAD-2 cells [1]) [nM] | IC50 (LAD-2 cells [2]) [nM] | SMILES | hERG Inhibition (%) @ 1 μM (hERG channel) [%] | hERG Inhibition (%) @ 20 μM (hERG channel) [%] | activity at 0.25 µM (LAD-2 cells [2]) [%]
58 | 1940 | – | C[C@@H](C(=O)Nc1cn(Cc2ccc(F)cc2F)cn1)N1CCC(F)(F)[C@@H](c2cc[n+]([O-])cc2)C1 (single isomer, unassigned) [Compound 1] | 10 | 35 | –
9 | 14 | – | C[C@H](C(=O)Nc1cn(Cc2cc(F)cc(F)c2)cn1)N1CCC(F)(F)[C@@H](c2cc[n+]([O-])cc2)C1 (single isomer, unassigned) [Compound 5] | 3 | 35 | –
13 | – | 9.5 | C[C@@H](C(=O)Nc1cn2c(n1)CC[C@@H]2c1cc(F)cc(F)c1)N1CCC(F)(F)[C@@H](c2cc[n+]([O-])cc2)C1 (single isomer, unassigned) [Compound 489] | 12 | 47 | 14
